Data reported in patent US20230348426A1, “OXOPYRROLIDINE FPR2 AGONISTS” (Bristol-Myers Squibb Company, priority 2020, published 2023).

Columns and labels:
[1] = target: human FPR2 (Homo sapiens (Human), UniProt P25090); experiment: FPR2 cyclic adenosine monophosphate (cAMP) assay; format: cell-based; settings: CHO cells overexpressing human FPR2; forskolin 5 µM; inhibition of cAMP production; read-out: hFPR2 cAMP2 EC50
How it was run: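 CHO cells overexpressing human FPR2 (2,000/well) incubated 30 min at room temperature with compound (0.020 nM–100 µM, 1% DMSO), 5 µM forskolin and 200 µM IBMX.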

[2] = target: human FPR1 (Homo sapiens (Human), UniProt P21462); experiment: FPR1 cyclic adenosine monophosphate (cAMP) assay; format: cell-based; settings: CHO cells overexpressing human FPR1; forskolin 10 µM; inhibition of cAMP production; read-out: hFPR1 cAMP EC50
How it was run: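 CHO cells overexpressing human FPR1 (4,000 cells/well) stimulated with 10 µM forskolin plus 200 µM IBMX in the presence of compound (0.020 nM–100 µM, 1% DMSO), 30 min at room temperature. Intracellular cAMP measured by HTRF. Inhibition of cAMP production fitted to a 4-parameter logistic equation.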

Chain of human FPR1 (P21462 whole entry): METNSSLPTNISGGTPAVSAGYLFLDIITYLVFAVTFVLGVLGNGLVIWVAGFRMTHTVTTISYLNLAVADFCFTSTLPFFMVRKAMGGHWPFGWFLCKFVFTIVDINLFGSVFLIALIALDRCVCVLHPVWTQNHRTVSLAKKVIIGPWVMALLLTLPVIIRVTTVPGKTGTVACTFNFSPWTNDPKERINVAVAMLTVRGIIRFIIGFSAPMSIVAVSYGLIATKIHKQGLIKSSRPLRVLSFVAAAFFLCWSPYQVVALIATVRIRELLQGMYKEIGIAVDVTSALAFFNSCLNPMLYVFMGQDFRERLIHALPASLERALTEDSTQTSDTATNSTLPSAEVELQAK
Chain of human FPR2 (P25090 whole entry): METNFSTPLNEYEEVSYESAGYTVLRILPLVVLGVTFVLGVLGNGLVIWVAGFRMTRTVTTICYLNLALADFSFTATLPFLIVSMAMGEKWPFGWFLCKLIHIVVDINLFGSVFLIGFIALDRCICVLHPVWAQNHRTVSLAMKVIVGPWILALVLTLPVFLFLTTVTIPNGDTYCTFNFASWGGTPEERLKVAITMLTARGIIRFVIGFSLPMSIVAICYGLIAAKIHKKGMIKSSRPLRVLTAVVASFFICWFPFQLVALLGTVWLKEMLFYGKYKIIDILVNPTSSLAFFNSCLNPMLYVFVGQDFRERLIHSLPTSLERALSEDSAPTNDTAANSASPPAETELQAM

Q: Which EC50 [1] does the source give for `COc1cc(F)c([C@@H]2CN(c3nc(C4CCN(C)CC4)ccc3F)C(=O)[C@H]2NC(=O)c2ccc(OC(F)F)cc2)c(F)c1` [Example 556] here?
A: 2.2 nM

Q: What about the EC50 [2] of the same compound?
A: 2000 nM

Q: What does the source list for `COc1cc(F)c([C@@H]2CN(c3c(C)ccn(CC(C)O)c3=O)C(=O)[C@H]2NC(=O)c2ccc(OC(F)F)cc2)c(F)c1` (some centres unmarked) [Example 176]?
A: EC50 [1]: 4.6 nM; EC50 [2]: 6.5 nM

Q: With `COCC(CO)n1cccc(N2C[C@@H](c3ccc(Cl)cc3)[C@H](NC(=O)c3ccc(OC(F)(F)F)cc3)C2=O)c1=O` (some centres unmarked) [Example 154] as the compound, how does the EC50 [1] read?
A: 4 nM

Q: And the EC50 [2]?
A: 3.3 nM

Q: Which EC50 [1] does the source give for `COc1cc(C2CCN(CCF)CC2)nc(N2C[C@@H](c3c(F)cc(OC)cc3F)[C@H](NC(=O)c3ccc(OC(F)F)cc3)C2=O)c1` [Example 492] here?
A: 8.7 nM

Q: What about the EC50 [2] of the same compound?
A: > 5000 nM

Q: How did the EC50 [1] turn out when `COc1cc(F)c([C@@H]2CN(c3nccc(N4C[C@@H](C)N(C)[C@@H](C)C4)c3C(F)(F)F)C(=O)[C@H]2NC(=O)c2ccc(OC(F)F)cc2)c(F)c1` [Example 109] was run?
A: 2.9 nM

Q: What about the EC50 [2] of the same compound?
A: 500 nM

Q: Which results are given for `COc1cc(F)c([C@H]2[C@H](NC(=O)c3ccc(OC(F)F)cc3)C(=O)N(c3cccc(C4CCCN(CCO)C4)n3)[C@H]2C)c(F)c1` (some centres unmarked) [Example 516]?
A: EC50 [1]: 1.3 nM; EC50 [2]: 1700 nM

Q: Which results are given for `COc1ccc([C@@H]2CN(c3cccn(CC(F)F)c3=O)C(=O)[C@H]2NC(=O)c2ccc(OC(F)F)cc2)c(F)c1` [Example 59]?
A: EC50 [1]: 1.5 nM; EC50 [2]: 6.6 nM

Q: How did the EC50 [1] turn out when `COc1cc(F)c([C@@H]2CN(c3nc(N4C(=O)CC[C@H]4CO)ccc3F)C(=O)[C@H]2NC(=O)c2ccc(OC(F)(F)F)cc2)c(F)c1` [Example 246] was run?
A: 6.9 nM

Q: What about the EC50 [2] of the same compound?
A: 280 nM

Q: `COc1cc(F)c([C@@H]2CN(c3nccc(NC4CCOC4)c3C(F)(F)F)C(=O)[C@H]2NC(=O)c2ccc(Cl)cc2)c(F)c1` (some centres unmarked) [Example 263] was tested. Which EC50 [1] did it give?
A: 7.5 nM

Q: What about the EC50 [2] of the same compound?
A: 1300 nM

Q: `CCn1nccc(N2C[C@@H](c3c(F)cc(OC)cc3F)[C@H](NC(=O)c3ccc(OC(F)F)cc3)C2=O)c1=O` [Example 358] was tested. Which EC50 [1] did it give?
A: 2 nM

Q: And the EC50 [2]?
A: 14 nM

Q: With `COCCn1ccc(C)c(N2C[C@@H](c3ccc(OC)cc3F)[C@H](NC(=O)c3ccc(OC(F)F)cc3)C2=O)c1=O` [Example 208] as the compound, how does the EC50 [1] read?
A: 5.4 nM

Q: And the EC50 [2]?
A: 1.4 nM

Q: With `COc1cc(C2CCN(CC(F)(F)F)CC2)nc(N2C(=O)[C@@H](NC(=O)c3ccc(OC(F)F)cc3)[C@H](c3c(F)cc(OC)cc3F)[C@@H]2C)c1` [Example 548] as the compound, how does the EC50 [1] read?
A: 280 nM

Q: And the EC50 [2]?
A: > 5000 nM

Q: `COCC(CO)n1cccc(N2C[C@@H](c3ccc(OC)cc3F)[C@H](NC(=O)c3ccc(OC(F)(F)F)cc3)C2=O)c1=O` (some centres unmarked) [Example 437] was tested. Which EC50 [1] did it give?
A: 1 nM

Q: And the EC50 [2]?
A: 1 nM

Q: Which results are given for `COc1cc(F)c([C@@H]2CN(c3cccnc3OC3CCOC3)C(=O)[C@H]2NC(=O)c2ccc(OC(F)F)cc2)c(F)c1` (some centres unmarked) [Example 157]?
A: EC50 [1]: 4 nM; EC50 [2]: 100 nM

Q: `COc1ccc([C@@H]2CN(c3ccnn(CC(F)F)c3=O)C(=O)[C@H]2NC(=O)c2ccc(OC(F)(F)F)cc2)c(F)c1` [Example 696] was tested. Which EC50 [1] did it give?
A: 7.2 nM

Q: What about the EC50 [2] of the same compound?
A: 8.3 nM

Q: What does the source list for `COc1cc(F)c([C@@H]2CN(c3cc4c(n(CCO)c3=O)CCCC4)C(=O)[C@H]2NC(=O)c2ccc(OC(F)F)cc2)c(F)c1` [Example 446]?
A: EC50 [1]: < 5 nM; EC50 [2]: 3 nM

Q: What does the source list for `COCC(CN)n1cccc(N2C[C@@H](c3c(F)cc(OC)cc3F)[C@H](NC(=O)c3ccc(OC(F)(F)F)cc3)C2=O)c1=O` (some centres unmarked) [Example 78]?
A: EC50 [1]: 2 nM; EC50 [2]: 5.2 nM

Q: What does the source list for `COc1cc(F)c([C@@H]2CN(c3cncn(C4CCN(C)C4)c3=O)C(=O)[C@H]2NC(=O)c2ccc(Cl)cc2)c(F)c1` (some centres unmarked) [Example 514]?
A: EC50 [1]: 2.6 nM; EC50 [2]: 270 nM

Q: Which results are given for `COc1cc(F)c([C@@H]2CN(c3cc(F)cc(OC(C)C)c3)C(=O)[C@H]2NC(=O)c2ccc(OC(F)F)cc2)c(F)c1` [Example 29]?
A: EC50 [1]: 51 nM; EC50 [2]: 110 nM

Q: `COc1cc(F)c([C@@H]2CN(c3cc(OCC4CCCO4)ncn3)C(=O)[C@H]2NC(=O)c2ccc(Cl)cc2)c(F)c1` (some centres unmarked) [Example 499] was tested. Which EC50 [1] did it give?
A: 29 nM

Q: And the EC50 [2]?
A: 60 nM

Q: Which results are given for `COc1cc(F)c([C@@H]2CN(c3cccn4c(C)nnc34)C(=O)[C@H]2NC(=O)c2ccc(Cl)cc2)c(F)c1` [Example 603]?
A: EC50 [1]: 3.9 nM; EC50 [2]: 56 nM

Q: With `COc1ccc([C@@H]2CN(c3c(C)ccn(CC4CCOCC4)c3=O)C(=O)[C@H]2NC(=O)c2ccc(OC(F)F)cc2)c(F)c1` [Example 698] as the compound, how does the EC50 [1] read?
A: 5.7 nM

Q: And the EC50 [2]?
A: 2.5 nM

Q: How did the EC50 [1] turn out when `CCn1cccc(N2C(=O)[C@@H](NC(=O)c3ccc(OC(F)(F)F)cc3)[C@H](c3c(F)cc(OC)cc3F)[C@@H]2C)c1=O` [Example 93] was run?
A: 2.6 nM

Q: And the EC50 [2]?
A: 68 nM

Q: With `COc1cc(F)c([C@@H]2CN(c3cccn4cc(C5CC5)nc34)C(=O)[C@H]2NC(=O)c2ccc(Cl)cc2)c(F)c1` [Example 495] as the compound, how does the EC50 [1] read?
A: 1.6 nM

Q: And the EC50 [2]?
A: 860 nM

Q: Which EC50 [1] does the source give for `COCCn1cccc(N2C(=O)[C@@H](NC(=O)c3ccc(Cl)cc3)[C@H](c3c(F)cc(OC)cc3F)[C@H]2C)c1=O` [Example 220] here?
A: 5.8 nM

Q: What about the EC50 [2] of the same compound?
A: 990 nM
